Reference: patent US9695155B2, “Herbicidal substituted pyrimidinyloxy benzene compounds” (E. I. DU PONT DE NEMOURS AND COMPANY, priority 2013, dated 2017)

How the values were obtained:
kochia = assay: Test A preemergence; type: in vivo, Kochia scoparia; conditions: 0 to 100 scale where 0 is no effect and 100 is complete control
Method in brief: (§1)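 Pre- and postemergence greenhouse screen. Soil: loam + sand. Spray carrier: solvent mixture, non-phytotoxic, with surfactant. Post timing at 1–2 leaves, height 2–10 cm. Readout: visual injury on a 0–100 scale roughly 10 days after application, untreated plants as reference.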

ragweed = assay: Test A preemergence; type: in vivo, Ambrosia elatior; conditions: 0 to 100 scale where 0 is no effect and 100 is complete control
Method in brief: as §1

Italian ryegrass = assay: Test A preemergence; type: in vivo, Lolium multiflorum; conditions: 0 to 100 scale where 0 is no effect and 100 is complete control
Method in brief: as §1

blackgrass = assay: Test A postemergence; type: in vivo, Alopecurus myosuroides; conditions: 0 to 100 scale where 0 is no effect and 100 is complete control
Method in brief: as §1

galium [1] = assay: Test A postemergence; type: in vivo, Galium aparine; conditions: 0 to 100 scale where 0 is no effect and 100 is complete control
Method in brief: as §1

wheat, winter = assay: Test C preemergence; type: in vivo, Triticum aestivum; conditions: for Wheat plant response rating: preemergence
Method in brief: (§2)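 Greenhouse herbicide screen. Pre: seeded loam/sand, sprayed at planting. Post: 1–4 leaf plants (2–18 cm) in peat-based mix. Formulation: solvent mixture + surfactant, non-phytotoxic. Readout: visual % control vs untreated, 13–15 d; dash = not tested.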

galium [2] = assay: Test C preemergence; type: in vivo, Galium aparine; conditions: for Galium plant response rating: preemergence
Method in brief: as §2

corn = assay: Test C preemergence; type: in vivo, Zea mays; conditions: for Corn plant response rating: preemergence
Method in brief: as §2

large (Lg) crabgrass = assay: Test C preemergence; type: in vivo, Digitaria sanguinalis; conditions: for Crabgrass, Large plant response rating: preemergence
Method in brief: as §2

giant foxtail = assay: Test C preemergence; type: in vivo, Setaria faberii; conditions: for Foxtail, Giant plant response rating: preemergence
Method in brief: as §2

lambsquarters = assay: Test C preemergence; type: in vivo, Chenopodium album; conditions: for Lambsquarters plant response rating: preemergence
Method in brief: as §2

pigweed = assay: Test C preemergence; type: in vivo, Amaranthus retroflexus; conditions: for Pigweed plant response rating: preemergence
Method in brief: as §2

waterhemp = assay: Test C preemergence; type: in vivo, Amaranthus rudis; conditions: for Waterhemp plant response rating: preemergence
Method in brief: as §2

velvetleaf = assay: Test C preemergence; type: in vivo, Abutilon theophrasti; conditions: for Velvetleaf plant response rating: preemergence
Method in brief: as §2

[3] = 8 g ai/ha, scale 0 to 100 (0 no effect, 100 complete control)
[4] = 16 g ai/ha, scale 0 to 100 (0 no effect, 100 complete control)
[5] = 62 g ai/ha, scale 0 (no effect) to 100 (complete control)
[6] = Preemergence, 31 g ai/ha, scale 0 to 100, 0 no effect, 100 complete control

SMILES: N#Cc1cnn(-c2c(C#N)cccc2Oc2ncc(Br)cn2)c1 [Compound 135]
- Plant response rating, Kochia (kochia; 125 g ai/ha): 100
- Kochia plant response rating (kochia; 500 g ai/ha): 100
- Plant response rating, Ragweed (ragweed; 125 g ai/ha): 90
- Ragweed plant response rating (ragweed; 500 g ai/ha): 90
- Plant response rating, Ryegrass, Italian (Italian ryegrass; 125 g ai/ha): 0
- Ryegrass, Italian plant response rating (Italian ryegrass; 500 g ai/ha): 20
- Blackgrass plant response rating (blackgrass; 125 g ai/ha): 30
- Plant response rating, Blackgrass (blackgrass; 500 g ai/ha): 90
- Galium plant response rating (galium [1]; 125 g ai/ha): 60
- Plant response rating, Galium (galium [1]; 500 g ai/ha): 90
- Wheat plant response rating (wheat, winter; [3]): 0
- Wheat plant response rating (wheat, winter; [4]): 0
- Wheat plant response rating (wheat, winter; [5]): 0
- Plant response rating, Wheat (wheat, winter; [6]): 0
- Galium plant response rating (galium [2]; [3]): 0
- Galium plant response rating (galium [2]; [4]): 0
- Galium plant response rating (galium [2]; [5]): 90
- Plant response rating, Galium (galium [2]; [6]): 80
- Corn plant response rating (corn; [3]): 5
- Corn plant response rating (corn; [4]): 10
- Corn plant response rating (corn; [5]): 30
- Plant response rating, Corn (corn; [6]): 5
- Crabgrass, Large plant response rating (large (Lg) crabgrass; [3]): 45
- Crabgrass, Large plant response rating (large (Lg) crabgrass; [4]): 60
- Crabgrass, Large plant response rating (large (Lg) crabgrass; [5]): 100
- Plant response rating, Crabgrass, Large (large (Lg) crabgrass; [6]): 100
- Foxtail, Giant plant response rating (giant foxtail; [3]): 0
- Foxtail, Giant plant response rating (giant foxtail; [4]): 5
- Foxtail, Giant plant response rating (giant foxtail; [5]): 70
- Plant response rating, Foxtail, Giant (giant foxtail; [6]): 70
- Lambsquarters plant response rating (lambsquarters; [4]): 30
- Lambsquarters plant response rating (lambsquarters; [5]): 85
- Plant response rating, Lambsquarters (lambsquarters; [6]): 85
- Pigweed plant response rating (pigweed; [3]): 50
- Pigweed plant response rating (pigweed; [4]): 85
- Pigweed plant response rating (pigweed; [5]): 98
- Plant response rating, Pigweed (pigweed; [6]): 80
- Waterhemp plant response rating (waterhemp; [3]): 55
- Waterhemp plant response rating (waterhemp; [4]): 75
- Waterhemp plant response rating (waterhemp; [5]): 100
- Plant response rating, Waterhemp (waterhemp; [6]): 100
- Velvetleaf plant response rating (velvetleaf; [3]): 5
- Velvetleaf plant response rating (velvetleaf; [4]): 40
- Velvetleaf plant response rating (velvetleaf; [5]): 85
- Plant response rating, Velvetleaf (velvetleaf; [6]): 45
